{"source": "patent US20240050392A1", "about": "“COMPOSITIONS AND METHODS FOR IMPROVED TREATMENT OF PLATINUM-BASED CHEMOTHERAPEUTIC RESISTANT TUMORS” (THE REGENTS OF THE UNIVERSITY OF THE COLORADO, A BODY …, priority 2021, published 2024)", "key": {"[1]": {"tested_on": "KU1919-GemCis and KU1919 parental cells", "assay": "Drug dose response with NPEPPS knockdown or overexpression", "format": "cell-based, human"}, "[2]": {"tested_on": "KU1919, T24, and TCCSUP GemCis-resistant cells", "assay": "Cell culture dose response (IncuCyte growth inhibition) of tosedostat with gemcitabine and/or cisplatin", "format": "cell-based, human", "method": "One feature of NPEPPS is the availability of agents that inhibit its activity. Tosedostat, an orally available M1 aminopeptidase prodrug has antileukemic activity and is readily available for use. […] Tosedostat is antiproliferative, proapoptotic, and has antiangiogenic effects. The response of the KU1919, T24, and TCCSUP GemCis-resistant cells to increasing doses of tosedostat with gemcitabine, cisplatin, and gemcitabine plus cisplatin was measured. (FIGS. 3F-3H).\nCell Line Drug Treatments. Gemcitabine (Sigma) and cisplatin (Sigma) stocks were resuspended in 0.9% saline solution and tosedostat (Sigma and BOC Sciences) was resuspended in DMSO. All stocks solutions were stored protected from light and kept frozen until use. For cell culture dose response, cells were seeded in 96-well tissue culture plates with 500-2000 cells per well depending on growth rate and duration of experiment. Cells were seeded and allowed to attach overnight followed by replacing the media with fresh, pre-warmed media just prior to treatment. Drug dilutions were performed serially and using complete media (IMDM+10% FBS) and the associated drug treatments. Growth inhibition was measured using confluence estimates over time on the IncuCyte ZOOM (Essen Bioscience) over varying amounts of time depending on each experiment. Details for timing and replicates for each experiment are included in their respective figure legends."}, "[3]": {"tested_on": "bladder tumor-derived organoids", "assay": "Tumor-derived organoid drug screening (alamarBlue viability, reseeding)", "format": "cell-based, human", "method": "Three independent organoid models derived from patients that failed between 4 to 6 cycles of neoadjuvant gemcitabine plus cisplatin chemotherapy (FIG. 10A). The organoids mimicked the morphological and genomic characteristics of the tumor from which they were derived (FIG. 10B). These organoids were treated with increasing doses of cisplatin and 20 μM of tosedostat.\nTumor-derived Organoids. Culture of the organoids. Human bladder tissue was obtained from the Erasmus MC Bladder Cancer Center, Rotterdam, the Netherlands. Bladder tumor-derived organoids from biopsies obtained through TURBT or cystectomy. Briefly, bladder tissues were washed with Advanced DMEM/F12 (Gibco) supplemented with 10 mM HEPES (Gibco), 1% GlutaMax (Gibco) and 100 μg/ml primocin (InvivoGen), henceforth Ad+++. Tissue was minced and incubated at 37° C. with the digestion solution (collagenase 2.5 mg/ml in EBSS) and isolated cells were passed through […] strainer (Falcon), washed with Ad+++ and seeded in 50 μl drops of BME (R&D system) containing 10000-15000 cells in 24 well suspension plates (Greiner). Bladder tumor organoids were cultured in a culture medium containing Ad+++ supplemented with 1×B-27 (Gibco), 1.25 mM N-acetylcysteine (Sigma), 10 mM nicotinamide, 20 μM TGFβ receptor inhibitor A83-01, 100 ng/ml recombinant human FGF10 (Peprotech), 25 ng/ml recombinant human FGF7 (Peprotech), 12.5 ng/ml recombinant human FGF2 (Peprotech), 10 μM Y27632 Rho Kinase (ROCK) Inhibitor (Sigma) and conditioned media for recombinant Rspondin (2.5% v/v), and Wnt3A (2.5% v/v). The medium was changed every three days. Organoids were passaged at a 1:3 to 1:6 ratio every 7 days using cell dissociation solution-non enzymatic (Sigma) and plated in fresh BME matrix droplets.\nDrug screening. Organoids were collected 7 days after passaging, passed through a […] strainer and 1000 organoids were seeded per well of a 48-well plate in BME matrix droplets. After 24 hours cisplatin (Sigma) resuspended in PBS was added at different concentrations (2, 10, 25, and 50 μM) with or without tosedostat (20 μM) (Tocris) resuspended in DMSO. All wells were adjusted to contain less than 0.7% DMSO. Organoids were cultured for the first 6 days in the presence of drugs followed by drug withdrawal, where organoids were grown in organoid culture media for 10 days. The entire content of the wells in different treatment groups was collected, washed and reseeded after disaggregation in fresh BME, and cultured for 6 days. Cell viability was assayed using alamarBlue (Invitrogen) according to the manufacturer's instructions after 6 days of drug incubation, 10 days of drug withdrawal, and 6 days post reseeding. Viability data was normalized using organoid wells treated with vehicle control."}, "KU1919 and T24 cells": {"tested_on": "KU1919 and T24 cells", "assay": "Intracellular carboplatin measurements with NPEPPS and LRRC8A knockdown", "format": "cell-based, human", "settings": "KU1919 and T24 parental and GemCis cells"}, "[4]": {"settings": "active form, accumulates in cells; cited from earlier work"}}}
{"smiles": "Nc1ccn([C@@H]2O[C@H](CO)[C@@H](O)C2(F)F)c(=O)n1", "note": "[gemcitabine]", "values": [{"measurement": "effect of NPEPPS knockdown on drug response", "setting": "[1]; KU1919-GemCis cells, stable NPEPPS shRNA knockdown", "value": "not gemcitabine alone"}, {"measurement": "effect of NPEPPS overexpression on drug response", "setting": "[1]; KU1919 parental lines overexpressing NPEPPS", "value": "not gemcitabine"}]}
{"smiles": "CC(C)C[C@@H](C(=O)N[C@H](C(=O)OC1CCCC1)c1ccccc1)[C@H](O)C(=O)NO", "note": "[tosedostat]", "values": [{"measurement": "combined effect on cell growth", "setting": "[2]; increasing doses of tosedostat with cisplatin", "value": "strongest combined effect"}, {"measurement": "combined effect on cell growth", "setting": "[2]; increasing doses of tosedostat with gemcitabine", "value": "little to no effect"}, {"measurement": "combined effect on cell growth", "setting": "[2]; increasing doses of tosedostat with gemcitabine plus cisplatin", "value": "strongest combined effect"}, {"measurement": "organoid growth", "setting": "[3]; 20 μM tosedostat in combination with 2 μM and 10 μM cisplatin", "value": "significantly decreased organoid growth"}, {"measurement": "organoid growth", "setting": "[3]; tosedostat alone, 20 μM", "value": "minor effect on organoid growth"}]}
{"smiles": "N.N.O=C([O-])C1(C(=O)[O-])CCC1.[Pt+2]", "note": "[carboplatin]", "values": [{"measurement": "NPEPPS-mediated import pattern of carboplatin compared with cisplatin", "setting": "KU1919 and T24 cells", "value": "the same patterns were found"}]}
{"smiles": "CC(C)C[C@@H](C(=O)N[C@H](C(=O)O)c1ccccc1)[C@H](O)C(=O)NO", "note": "[CHR-79888]", "values": [{"measurement": "membrane permeability", "setting": "[4]", "value": "poorly membrane-permeable"}]}
